This is an account of results in patent US20080207700A1, “Amino Acid Salts of Rosiglitazone” (priority 2005, published 2008).

Structures are written as SMILES.

The data set is described as follows: physchem. As to the method:
The following buffer solutions were used:
Thereafter, the suspensions were treated in an ultrasonic bath for 1 minute, the pH was checked and, where necessary, readjusted to the value given respectively below. Then, the solutions were 0.45 μm filtrated.
The absorption of thus produced solutions was measured at 345 nm.

For orientation: solubility means the dissolved amount per volume that the medium holds. High values mean a readily soluble substance, low ones a poorly soluble substance. Take `CN(CCOc1ccc(CC2SC(=O)NC2=O)cc1)c1ccccn1` (centres unmarked) [Base, 5-(4-/2-(N-methyl-N-(2-pyridyl)amino)ethoxy/benzyl)-2,4-thiazolidinedione]: the solubility at 1 min (pH 11.8, aqueous buffer, thermodynamic from solid) is more than 50 mg/mL. On to `CN(CCOc1ccc(CC2SC(=O)NC2=O)cc1)c1ccccn1.O=C(O)/C=C\C(=O)O` (centres unmarked) [Maleate, rosiglitazone maleate], for which the water solubility (pH 6) was less than 0.1 mg/mL.
